Experimental data as given in patent US20260176289A1, “SMALL MOLECULE INHIBITORS OF KRAS PROTEINS” (Merck Sharp & Dohme LLC, priority 2022, published 2026).

Experiments:
KRAS-WT = KRAS-WT (Homo sapiens, UniProt P01116); experiment: SOS-catalyzed nucleotide exchange assay (Procedure A, TR-FRET), KRAS-WT; type: biochemical; settings: nucleotide exchange, read-out: KRAS WT GNE IC50
Outline: (§1)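 Inhibitors stabilizing the Bodipy-GDP state are detected as retained TR-FRET from a preformed biotinylated RAS/Tb-streptavidin complex. They are preincubated 60 min at room temperature, then human SOS and 3 mM GTP are added. G12V runs 90 min at 1.25 nM RAS/160 nM SOS. G12C (3 nM), WT (1 nM) and NRAS (1.25 nM) run 60 min with 40 nM SOS.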

KRAS-G12D = KRAS-G12D (Homo sapiens, UniProt P01116, G12D); experiment: SOS-catalyzed nucleotide exchange assay (Procedure A, TR-FRET), KRAS-G12D; type: biochemical; settings: nucleotide exchange, read-out: KRAS G12D GNE IC50
Outline: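 Signal ratio (520/495 nm, excitation 340 nm) reports Bodipy-GDP retention on biotinylated RAS after SOS-catalyzed exchange with 3 mM GTP. SOS was 40 nM, except 160 nM for G12V. Room-temperature exchange lasted 60 min (90 min for G12V), following a 60 min compound preincubation.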

KRAS-G12V = KRAS-G12V (Homo sapiens, UniProt P01116, G12V); experiment: SOS-catalyzed nucleotide exchange assay (Procedure A, TR-FRET), KRAS-G12V; type: biochemical; settings: nucleotide exchange, read-out: KRAS G12V GNE IC50
Outline: as §1

MKN-1 cells = experiment: Cellular phospho-ERK assay, MKN-1 cells (amplified wild-type KRAS); type: cell-based; settings: Homo sapiens, amplified wild-type KRAS, 2 hours, read-out: MKN1 pERK IC50
Experimental: (§2) Procedure for Cellular Phospho-ERK Assay in KRAS Wild Type and Mutant (G12D, G12V) Cell Lines
(§3) MKN-1 cells (JCRB JCRB0252) containing amplified wild-type KRAS, were cultured in growth medium that contains RPMI 1640-GlutaMAX™-I (ThermoFisher Scientific 61870) containing 10% heat inactivated fetal bovine serum (ThermoFisher Scientific 10091148), 1 mM sodium pyruvate and 10 mM HEPES. PANC08.13 cells (ATCC® CRL-2551™), containing homozygous KRAS-G12D activating mutation, were cultured in growth medium made of RPMI1640-GlutaMAX™-I (ThermoFisher Scientific 61870) containing 15% heat inactivated fetal bovine serum (ThermoFisher Scientific 10091148)). AsPC-1 cells (ATCC® CRL-1682™), containing homozygous KRAS-G12D activating mutation, were cultured in T150 flask in growth medium (RPMI medium 1640-GlutaMAX™-I (ThermoFisher Scientific 61870) containing 10% fetal bovine serum (ThermoFisher Scientific 10091148)). SW620 cells (ATCC® […]), containing homozygous KRAS-G12V activating mutation, were cultured in growth medium that contains RPMI 1640-GlutaMAX™-I (ThermoFisher Scientific 61870) containing 10% heat inactivated fetal bovine serum (ThermoFisher Scientific 10091148).
(§4) Cells for the assay were harvested in growth medium after TrypLE (ThermoFisher scientific 12604021) digestion and were seeded in a 384-well collagen coated cell culture plate (Corning 356702) at a density of 10,000-15,000 cells/20 μL/well, and incubated at 37° C., 5% CO2 overnight. The compound (with 10 mM stock concentration) dose-response titrations were prepared [30 μM final ERK detection assay concentration and 1:3 dilutions, 10-point dose response] and appropriate amounts (270 nL) of test compounds were dispensed in a 384-well intermediate plate using an Echo 550 liquid handler. 30 μL/well of RPMI medium 1640-GlutaMAX™—I was added to the intermediate plate and the contents of the intermediate plate (10 μL/well) were then transferred to the 384-well collagen coated cell culture plate, which was incubated at 37° C., 5% CO2 for 2 hours. After removal of medium from the collagen coated cell culture plate, cells were lysed in lysis buffer from Alpha SureFire® Ultra™ Multiplex p-ERK and total ERK assay kit (PerkinElmer MPSU-PTERK) containing Halt™ Protease and Phosphatase inhibitor cocktail (ThermoFisher Scientific 78446) at room temperature with constant shaking at 300 rpm for 30 minutes. The cell lysates were then transferred to an OptiPlate-384 plate (PerkinElmer 6005620), and the phosphorylation of ERK (p-ERK) and total ERK levels were detected by Alpha SureFire® Ultra™ Multiplex p-EEK kit and total ERK assay kit (PerkinElmer MPSU-PTERK) following the manufacturer's protocol. Assay plates were read on a En Vision Multimode Plate Reader (PerkinElmer), and the ratio of p-ERK vs. total ERK in each well was used as the final readout. Dose response curves were analyzed using a 4-parameter logistic model to calculate IC50 values using Spotfire software.

AsPC-1 cells = experiment: Cellular phospho-ERK assay, AsPC-1 cells (homozygous KRAS-G12D); type: cell-based; settings: Homo sapiens, ASPC1, 2 h, KRAS-G12D, 2 hours, read-out: AsPC1 pERK IC50
Outline: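 Inhibition of ERK phosphorylation was determined after treating attached cells with compound for 2 h; top concentration 30 μM, serial 1:3 dilution. Each well's p-ERK:total ERK ratio, read by SureFire Ultra, was fitted with a four-parameter model for IC50.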

SW620 cells = experiment: Cellular phospho-ERK assay, SW620 cells (homozygous KRAS-G12V); type: cell-based; settings: Homo sapiens, SW-620, KRAS-G12V, 2 hours, read-out: SW620 pERK IC50
Experimental: as §2, §3, §4

Chain of KRAS-WT (P01116 with tags, fused parts or gaps isoform P01116-2): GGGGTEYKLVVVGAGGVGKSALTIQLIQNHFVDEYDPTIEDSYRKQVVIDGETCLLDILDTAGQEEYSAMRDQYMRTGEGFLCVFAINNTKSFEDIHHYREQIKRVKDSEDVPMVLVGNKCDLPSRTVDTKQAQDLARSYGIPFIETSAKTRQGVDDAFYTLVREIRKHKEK
Chain of KRAS-G12V (P01116 with tags, fused parts or gaps isoform P01116-2 G12V): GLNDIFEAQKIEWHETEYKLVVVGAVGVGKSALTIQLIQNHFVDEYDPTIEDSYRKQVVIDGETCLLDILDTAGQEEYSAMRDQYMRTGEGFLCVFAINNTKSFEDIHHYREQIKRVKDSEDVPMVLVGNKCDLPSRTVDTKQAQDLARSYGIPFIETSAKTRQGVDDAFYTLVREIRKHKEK
Chain of KRAS-G12D (P01116 with tags, fused parts or gaps isoform P01116-2 G12D): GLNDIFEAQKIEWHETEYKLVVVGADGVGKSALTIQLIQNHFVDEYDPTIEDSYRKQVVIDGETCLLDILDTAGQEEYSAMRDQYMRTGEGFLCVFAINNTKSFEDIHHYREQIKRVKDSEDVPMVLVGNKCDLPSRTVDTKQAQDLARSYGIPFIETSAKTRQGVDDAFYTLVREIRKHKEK

SMILES	IC50 (KRAS-WT) [nM]	IC50 (KRAS-G12D) [nM]	IC50 (KRAS-G12V) [nM]	IC50 (MKN-1 cells) [nM]	IC50 (AsPC-1 cells) [nM]	IC50 (SW620 cells) [nM]
C/C=C/c1c(C)cc2[nH]ncc2c1-c1nccc2c1sc1nc(OC[C@@]34CCCN3C[C@H](F)C4)nc(N3CCOC[C@@](C)(O)C3)c12 [Ex-64, (6S)-4-(2-(((2R,7aS)-2-fluorotetrahydro-1H-pyrrolizin-7a(5H)-yl)methoxy)-8-(6-methyl-5-((E)-prop-1-en-1-yl)-1H-indazol-4-yl)pyrido[4′,3′:4,5]thieno [2,3-d]pyrimidin-4-yl)-6-methyl-1,4-oxazepan-6-ol]	250	99.1	163	389	486	294
C[C@@]1(O)COCCN(c2nc(OC[C@@]34CCCN3C[C@H](F)C4)nc3sc4c(-c5c(C6=CCC6)c(Cl)cc6[nH]ncc56)nccc4c23)C1 [Ex-70, (6S)-4-(8-(6-chloro-5-(cyclobut-1-en-1-yl)-1H-indazol-4-yl)-2-(((2R,7aS)-2-fluorotetrahydro-1H-pyrrolizin-7a(5H)-yl)methoxy)pyrido[4′,3′:4,5]thi-eno[2,3-d]pyrimidin-4-yl)-6-methyl-1,4-oxazepan-6-ol]	33.8	6.5	19.6	61.8	95.1	29.6
C[C@@]1(O)COCCN(c2nc(OC[C@@]34CCCN3C[C@H](F)C4)nc3sc4c(-c5c(-c6ccoc6)c(Cl)cc6[nH]ncc56)nccc4c23)C1 [Ex-71, (6S)-4-(8-(6-chloro-5-(furan-3-yl)-1H-indazol-4-yl)-2-(((2R,7aS)-2-fluorotetrahydro-1H-pyrrolizin-7a(5H)-yl)methoxy)pyrido[4′,3′:4,5]thi-eno[2,3-d]pyrimidin-4-yl)-6-methyl-1,4-oxazepan-6-ol]	17.6	4	11.5	50.2	66.4	150
Cc1cc2[nH]ncc2c(-c2nccc3c2sc2nc(OC[C@@]45CCCN4C[C@H](F)C5)nc(N4CCOC[C@@](C)(O)C4)c23)c1-c1ccc(F)o1 [Ex-72, (6S)-4-(8-(5-(5-fluorofuran-2-yl)-6-methyl-1H-indazol-4-yl)-2-(((2R,7aS)-2-fluorotetrahydro-1H-pyrrolizin-7a(5H)-yl)methoxy)pyrido[4′,3′:4,5]thi-eno[2,3-d]pyrimidin-4-yl)-6-methyl-1,4-oxazepan-6-ol]	53.9	15	35.3	82.4	139	53.8
CN1CCC[C@H]1COc1nc(N2CCOC[C@@](C)(O)C2)c2c(n1)sc1c(-c3c(C4CC4)c(Cl)cc4[nH]ncc34)nccc12 [Ex-80, (6S)-4-(8-(6-chloro-5-cyclopropyl-1H-indazol-4-yl)-2-(((S)-1-methylpyrrolidin-2-yl)methoxy)pyrido[4′,3′:4,5]thi-eno[2,3-d]pyrimidin-4-yl)-6-methy1-1,4-oxazepan-6-ol]	89	32.7	42	143	200	131
C[C@@]1(O)COCCN(c2nc(OC[C@@]34CCCN3C/C(=C\F)C4)nc3sc4c(-c5c(C6CC6)c(C(F)(F)F)cc6[nH]ncc56)nccc4c23)C1 [Ex-87, (6S)-4-(8-(5-cyclopropyl-6-(trifluoromethyl)-1H-indazol-4-yl)-2-(((S,Z)-2-(fluoromethylene)tetrahy-dro-1H-pyrrolizin-7a(5H)-yl)methoxy)pyrido[4′,3′:4,5]thi-eno[2,3-d]pyrimidin-4-yl)-6-methyl-1,4-oxazepan-6-ol]	80	41.6	31.4	109	176	96.6
C[C@@]1(O)COCCN(c2nc(OC[C@@]34CCCN3C[C@H](F)C4)nc3sc4c(-c5c6c(cc7[nH]ncc57)CCC65CC5)nccc4c23)C1 [Ex-88, (6S)-4-(8-(6,7-dihydro-1H-spiro[cyclopenta[f]indazole-5,1′-cyclopropan]-4-yl)-2-(((2R,7aS)-2-fluorotetrahydro-1H-pyrrolizin-7a(5H)-yl)methoxy)pyrido[4′,3′:4,5]thi-eno[2,3-d]pyrimidin-4-yl)-6-methyl-1,4-oxazepan-6-ol]	37.2	18.5	42.5	122	159	36.1
C[C@@]1(O)COCCN(c2nc(OC[C@@]34CCCN3C[C@H](F)C4)nc3sc4c(-c5c6c(cc7[nH]ncc57)CC5CC65)nccc4c23)C1 (stereo partly drawn) [Ex-90, (6S)-4-(2-(((2R,7aS)-2-fluorotetrahydro-1H-pyrrolizin-7a(5H)-yl)methoxy)-8-(4b,5,5a,6-tetrahydro-1H-cyclopropa[4,5]cyclopen-ta[1,2-f]indazol-4-yl)pyrido[4′,3′:4,5]thieno [2,3-d]pyrimidin-4-yl)-6-methyl-1,4-oxazepan-6-ol]	152	48.8	85	174	311	193
CCC1(F)c2c(cc3[nH]ncc3c2-c2nccc3c2sc2nc(OC[C@@]45CCCN4C[C@H](F)C5)nc(N4CCOC[C@@](C)(O)C4)c23)CC1(F)F (stereo partly drawn) [Ex-98, (6S)-4-(8-(5-ethy1-5,6,6-trifluoro-1,5,6,7-tetrahydrocyclopenta[f]in-dazol-4-yl)-2-(((2R,7aS)-2-fluorotetrahydro-1H-pyrrolizin-7a(5H)-yl)methoxy)pyrido[4′,3′:4,5]thi-eno[2,3-d]pyrimidin-4-yl)-6-methyl-1,4-oxazepan-6-ol]	61.3	18.9	20.8	72.8	175	68.8
C[C@@]1(O)COCCN(c2nc(OC[C@@]34CCCN3C[C@H](F)C4)nc3sc4c(-c5c6c(cc7[nH]ncc57)CC=C6C5CC5)nccc4c23)C1 [Ex-105, (6S)-4-(8-(5-cyclopropyl-1,7-dihydrocyclopenta[f]inda-zol-4-yl)-2-(((2R,7aS)-2-fluorotetrahydro-1H-pyrrolizin-7a(5H)-yl)methoxy)pyrido[4′,3′:4,5]thieno[2,3-d]pyrimidin-4-yl)-6-methyl-1,4-oxazepan-6-ol]	72.2	26.7	37.2	136	158	80.5
